Patent US11932850B2, “Cancer chemoprevention with STAT3 blockers” (Jill M. Siegfried, LLC, priority 2018, dated 2024)

How the values were obtained:
[1] = system: NSCLC cells (H1975 and 201T); experiment: Annexin V/propidium iodide apoptosis by flow cytometry; type: cell-based, human
Protocol: Statistical significance was determined as *P<0.05, n=3.
Dose-response experiments assessing the relative number of metabolically active viable cells were performed by transfecting cells with increasing concentrations of CS3D or CS3M, followed by performance of MTS assays. After 72 hours, 5 mg/ml of MTS reagent was added in the plates and incubated 37° C. for 20 minutes. The plates were then read at 490 nm in a Synergy microplate reader (BioTek, Winooski, Vermont) using Gen5 2.05 software. Data obtained following treatment with C3SD or CS3M were normalized to treatment with lipofectamine alone. […] After twenty four hours of transfection, cells were resuspended in annexin V-binding buffer, incubated with 5 μL of propidium iodide (BD Biosciences) and subjected to flow cytometric analysis, using a BD FACS Canto II Flow Cytometer.

[2] = system: c-Myc protein in 201T cells; details: 3 hr after EGF, compared to CS3M or lipofectamine alone
Protocol: c-Myc is a STAT3 target gene that is known to be activated by EGF treatment. To investigate the effects of STAT3 blockade on c-Myc expression, cells were first treated with 10 ng/ml EGF for 1.5 hr (deemed the optimal time to observe increased c-Myc RNA), 24 hr after transfection of the cyclic oligonucleotides. RT-qPCR was used to assess differences in mRNA expression in STAT3 decoy-treated versus mutant decoy-treated cells (FIGS. 5A and 5B). […] Cells were treated 24 hours post-transfection with EGF (10 ng/ml) for 1.5 hr and mRNA was harvested from wild-type (A) and mutant EGFR T790M (B) NSCLC cell lines, and mRNA expression was assessed by RT-qPCR. Relative mRNA expression was normalized to GAPDH mRNA levels as an internal control. Statistical significance was determined as *P<0.05. […] Cells were treated 24 hours post-transfection with EGF (10 ng/ml) for 1.5 hr and mRNA was harvested from mutant EGFR T790M (B) NSCLC cell lines. […] Cells were is treated as in FIGS. 5A and 5B, and 3 hr after EGF treatment, lysates were collected from wild-type 201T (left) and mutant EGFR […] H1975 (right) NSCLC cell lines.

[3] = system: NNK-induced lung tumors; experiment: NNK lung cancer chemoprevention pilot experiment; type: in vivo; details: 5 mg/kg IV 5 days a wk for 18 wks
Protocol: In a pilot experiment, 6 FVB/N mice were given 24 mg NNK (3 mg by ip injection, twice a wk×4 wks), followed by 6 wks rest, then IV treatment of 3 mice with either 5 mg/kg CS3D or CS3M 5 days a wk for 18 wks. […] With CS3M, lungs were filled with multiple invasive adenocarcinomas, while in mice receiving CS3D, tumor burden was reduced over 80%. H&E (hematoxylin and eosin) sections were taken of murine lungs exposed to NNK followed by treatment with CS3M or CS3D for 18 wks. Invasive carcinomas were prominent with CS3M and lacking with CS3D.

CS3D (DNA GATTTACGGGAAATGCSCATTTCCC; cyclic decoy with two hexaethylene glycol linkers, further chemistry not given here)
increase in number of cells undergoing apoptosis ([1]; 100 nM, 24 h, compared to CS3M): 2 fold | increase in the percent of apoptotic cells ([1]; 201T and H1975, relative to CS3M): 2 fold | increase in number of apoptotic cells ([1]; one transfection, all 4 cell lines): 2 fold | reduction in c-Myc protein expression [2]: 31% | toxic effects [3]: no discernable toxic effects | reduction of tumor burden ([3]; 24 mg NNK, 6 wks rest, vs CS3M): over 80%
